In one data set the target is T1, HDAC6 (Homo sapiens, UniProt Q9UBN7).
T1 sequence (Q9UBN7 1-1215): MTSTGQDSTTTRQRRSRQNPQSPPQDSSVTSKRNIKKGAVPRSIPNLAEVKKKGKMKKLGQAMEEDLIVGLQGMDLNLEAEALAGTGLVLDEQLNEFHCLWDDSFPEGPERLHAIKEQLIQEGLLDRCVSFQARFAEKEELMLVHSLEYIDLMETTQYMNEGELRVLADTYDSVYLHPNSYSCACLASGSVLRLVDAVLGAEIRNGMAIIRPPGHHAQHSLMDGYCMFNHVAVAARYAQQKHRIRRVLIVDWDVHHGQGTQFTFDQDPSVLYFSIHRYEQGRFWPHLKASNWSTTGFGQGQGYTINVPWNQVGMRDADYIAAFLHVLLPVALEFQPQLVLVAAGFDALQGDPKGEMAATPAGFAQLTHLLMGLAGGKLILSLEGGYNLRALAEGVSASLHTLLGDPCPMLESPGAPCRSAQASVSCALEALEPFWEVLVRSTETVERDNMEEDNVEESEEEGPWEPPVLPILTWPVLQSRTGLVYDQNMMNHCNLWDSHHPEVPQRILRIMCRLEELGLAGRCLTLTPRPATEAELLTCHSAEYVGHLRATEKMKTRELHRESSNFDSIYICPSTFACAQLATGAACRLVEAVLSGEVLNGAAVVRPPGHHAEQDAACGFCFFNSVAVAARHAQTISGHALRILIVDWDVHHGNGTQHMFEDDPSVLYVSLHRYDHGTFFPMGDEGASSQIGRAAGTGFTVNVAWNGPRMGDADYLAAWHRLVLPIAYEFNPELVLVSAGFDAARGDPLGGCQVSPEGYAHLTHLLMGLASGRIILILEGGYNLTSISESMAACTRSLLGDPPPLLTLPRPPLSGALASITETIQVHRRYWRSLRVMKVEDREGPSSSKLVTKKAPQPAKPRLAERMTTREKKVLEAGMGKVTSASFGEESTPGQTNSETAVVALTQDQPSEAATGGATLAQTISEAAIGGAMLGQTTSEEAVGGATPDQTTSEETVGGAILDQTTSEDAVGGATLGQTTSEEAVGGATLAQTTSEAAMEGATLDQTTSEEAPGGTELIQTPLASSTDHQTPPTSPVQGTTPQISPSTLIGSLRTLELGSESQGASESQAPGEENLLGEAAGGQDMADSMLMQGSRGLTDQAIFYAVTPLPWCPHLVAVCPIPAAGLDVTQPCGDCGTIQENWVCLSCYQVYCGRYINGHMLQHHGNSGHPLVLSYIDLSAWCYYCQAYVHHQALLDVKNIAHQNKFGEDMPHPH
Kind of data set: in vitro activity-based HDAC assay. It is filed as biochemical. Conditions: ranges given; read-out: IC50 for HDAC6. The procedure:
The exemplary compounds of Formula I and structurally related compounds were synthesized to assess their structure-activity relationship. […] The IC50 values for each exemplary compound were used to calculate the selectivity of the exemplary compounds for Formula I to HDAC6. The selectivity of each exemplary compound for HDAC6 was determined from examining the potency of HDAC6 in relation to the highest binding affinity of the other HDAC isoforms tested.

The next data set relates to MV-4-11. Description: Cytotoxicity in cell lines. It is filed as cell-based. Conditions: read-out: IC50 MV-411. The procedure: (§1) The cytotoxicity of exemplary compounds of the application was tested in multiple cell lines including MV-4-11, MOLM-13, MCF-7, MRC9, K562 and MM.1S. The therapeutic index was evaluated by determining the toxicity of the exemplary compounds in healthy cell lines including fibroblasts and HUVEC.

Data set [1] can be described thus: Plasma stability by LC-MS. Conditions: mouse plasma. The format is in vitro ADME. As for the experimental part:
The stability of select compounds of the application in plasma was assessed quantitatively through LC-MS and the results are shown in Table 6.

A further data set deals with MOLM-13. Kind of data set: Cytotoxicity in cell lines. The format is cell-based. The following applies: Homo sapiens, MOLM-13, read-out: IC50 MOLM-13. The procedure: as §1

Where two headings read alike, the source gives them in different places.

One may read the IC50 as the point on the concentration scale where inhibition reaches its midpoint. As a reminder, the half-life is how long it takes for the measured level to halve. A low value points to rapid decline.

With `O=C(/C=C/c1ccc(CN(C2CCCC2)S(=O)(=O)c2cc(F)c(F)c(F)c2F)cc1)NO` [Compound I-65, (E)-3-(4-((N-cyclopentyl-2,3,4,5-tetrafluorophenylsulfonamido)methyl)phenyl)-N-hydroxyacrylamide], the IC50 at HDAC6 was 150 to 200 nM; in the data set with MV-4-11 (Homo sapiens, MV4-11, Table 5), 2430 nM; with MV-4-11 (Table 5), 1940 nM.
Take `O=C(NO)c1ccc(CN(C2CC2)S(=O)(=O)c2c(F)c(F)cc(F)c2F)cc1` [Compound I-14, 4-((N-cyclopropyl-2,3,5,6-tetrafluorophenylsulfonamido)methyl)-N-hydroxybenzamide]: the IC50 in the data set on MV-4-11 (Homo sapiens, MV4-11, Table 4) was 5700 nM.
On to `O=C(/C=C/c1ccc(CNC(=O)c2c(F)c(F)c(F)c(F)c2F)cc1)NO` [Compound I-81, (E)-2,3,4,5,6-pentafluoro-N-(4-(3-(hydroxyamino)-3-oxoprop-1-en-1-yl)benzyl)benzamide], for which, on HDAC6, the IC50 is 10 to 30 nM.
For `O=C(/C=C/c1ccc(CN(c2ccccc2)S(=O)(=O)c2cc(F)c(F)c(F)c2F)cc1)NO` [Compound I-66, (E)-N-hydroxy-3-(4-((2,3,4,5-tetrafluoro-N-phenylphenylsulfonamido)methyl)phenyl)acrylamide], the IC50 at HDAC6 is 10 to 30 nM; in the data set with MV-4-11 (Homo sapiens, MV4-11, Table 5) it was 840 nM.
Take `O=C(/C=C/c1cccc(S(=O)(=O)Nc2ccccc2)c1)NO` [Belinostat]: in data set [1], the half-life worked out at 2.35 h, the “Remaining Percentage (%) 0 min” value is given as 100%, the “Remaining Percentage (%) 15 min” value is 88.6% and the “Remaining Percentage (%) 30 min” value is reported as 78.8%. For the same compound, in data set [1], the “Remaining Percentage (%) 45 min” value is 75.0%, the “Remaining Percentage (%) 60 min” value was 72.1% and the “Remaining Percentage (%) 120 min” value is recorded as 53.8%.
Take `O=C(NO)c1ccc(CN(Cc2ccccc2)S(=O)(=O)c2cc(F)c(F)c(F)c2F)cc1` [Compound I-16, 4-((N-benzyl-2,3,4,5-tetrafluorophenylsulfonamido)methyl)-N-hydroxybenzamide]: the IC50 with MV-4-11 (Homo sapiens, MV4-11, Table 4) was determined as 190 nM.
Same read-out and setting: with `Cc1ccc(CN(Cc2ccc(C(=O)NO)cc2)S(=O)(=O)c2cc(F)c(F)c(F)c2F)c(F)c1` [Compound I-26, N-hydroxy-4-((2,3,4,5-tetrafluoro-N-(2-fluoro-4-methylbenzyl)phenylsulfonamido)methyl)benzamide] the figure was 1870 nM.
As for `CC(c1ccc(F)cc1)N(Cc1ccc(/C=C/C(=O)NO)cc1)S(=O)(=O)c1c(F)c(F)c(F)c(F)c1F` (stereo not drawn) [Compound I-60, (E)-N-hydroxy-3-(4-((2,3,4,5,6-pentafluoro-N-(1-(4-fluorophenyl)ethyl)phenylsulfonamido)methyl)phenyl)acrylamide], the IC50 at HDAC6 is 10 to 30 nM; with MV-4-11 (Homo sapiens, MV4-11, Table 5), 470 nM.
Turning to `CN(Cc1ccc(C(=O)NO)cc1)S(=O)(=O)c1c(F)c(F)c(F)c(F)c1F` [Compound I-2, N-hydroxy-4-((2,3,4,5,6-pentafluoro-N-methylphenylsulfonamido)methyl)benzamide], in the data set on MV-4-11 (Homo sapiens, MV4-11, Table 4), the IC50 is 1040 nM.
Take `O=C(/C=C/c1ccc(CN(Cc2ccccc2)S(=O)(=O)c2cc(F)c(F)c(F)c2F)cc1)NO` [Compound I-67]: the IC50 in the data set with MV-4-11 (Homo sapiens, MV4-11, Table 5) worked out at 1140 nM.
As for `COc1cc(/C=C/C(=O)NO)ccc1CN(Cc1cccnc1)S(=O)(=O)c1cc(F)c(F)c(F)c1F` [Compound I-78], the IC50 with MV-4-11 (Homo sapiens, MV4-11, Table 5) turned out to be 1300 nM; with MOLM-13 (Table 5), 2900 nM.
As for `O=C(NO)c1ccc(CN(Cc2cc(F)c(F)c(F)c2)S(=O)(=O)c2c(F)c(F)c(F)c(F)c2F)cc1` [Compound I-11, N-hydroxy-4-((2,3,4,5,6-pentafluoro-N-(3,4,5-trifluorobenzyl)phenylsulfonamido)methyl)benzamide], in the data set on MOLM-13 (Table 4), the IC50 was 3500 nM.
On to `O=C(NO)c1ccc(CN(Cc2ccc(F)nc2)S(=O)(=O)c2cc(F)c(F)c(F)c2F)cc1` [Compound I-27, N-hydroxy-4-((2,3,4,5-tetrafluoro-N-((6-fluoropyridin-3-yl)methyl)phenylsulfonamido)methyl)benzamide], for which the IC50 with MV-4-11 (Homo sapiens, MV4-11, Table 4) worked out at 843 nM.
`COc1ccc(CN(Cc2ccc(/C=C/C(=O)NO)cc2)S(=O)(=O)c2c(F)c(F)c(F)c(F)c2F)cc1` [Compound I-61, (E)-N-hydroxy-3-(4-((2,3,4,5,6-pentafluoro-N-(4-methoxybenzyl)phenylsulfonamido)methyl)phenyl)acrylamide]: the IC50 on HDAC6 lay in the range of 30 to 50 nM.
Regarding `O=C(/C=C/c1ccc(CN(Cc2ccc(F)cc2)S(=O)(=O)c2cc(F)c(F)c(F)c2F)cc1)NO` [Compound I-68], the IC50 with MV-4-11 (Homo sapiens, MV4-11, Table 5) is 800 nM.
`O=C(NO)c1ccc(CN(Cc2ccccn2)S(=O)(=O)c2cc(F)c(F)c(F)c2F)cc1` [Compound I-20, N-hydroxy-4-((2,3,4,5-tetrafluoro-N-(pyridin-2-ylmethyl)phenylsulfonamido)methyl)benzamide]: the IC50 in the data set with MV-4-11 (Homo sapiens, MV4-11, Table 4) was determined as 480 nM.
Consider `O=C(/C=C/c1ccc(CN(C(=O)c2c(F)c(F)c(F)c(F)c2F)C2CC2)cc1)NO` [Compound I-83, (E)-N-cyclopropyl-2,3,4,5,6-pentafluoro-N-(4-(3-(hydroxyamino)-3-oxoprop-1-en-1-yl)benzyl)benzamide], for which, in the data set with MV-4-11 (Homo sapiens, MV4-11, Table 5), the IC50 amounted to 750 nM.
Regarding `O=C(NO)c1ccc(CN(Cc2ccncc2F)S(=O)(=O)c2cc(F)c(F)c(F)c2F)cc1` [Compound I-28, N-hydroxy-4-((2,3,4,5-tetrafluoro-N-((3-fluoropyridin-4-yl)methyl)phenylsulfonamido)methyl)benzamide], the IC50 with MV-4-11 (Homo sapiens, MV4-11, Table 4) came to 596 nM; in the data set on MOLM-13 (Table 4), 663 nM.
In the case of `O=C(Cc1ccc(CN(C2CC2)S(=O)(=O)c2cc(F)c(F)c(F)c2F)cc1)NO` [Compound I-71, 2-(4-((N-cyclopropyl-2,3,4,5-tetrafluorophenylsulfonamido)methyl)phenyl)-N-hydroxyacetamide], the IC50 at HDAC6 fell in the range of 100 to 150 nM.
`O=C(Cc1ccc(CN(C2CCCCC2)S(=O)(=O)c2cc(F)c(F)c(F)c2F)cc1)NO` [Compound I-72]: the IC50 in the data set on MV-4-11 (Homo sapiens, MV4-11, Table 5) worked out at 570 nM.
As for `CN(C)c1ccc(CN(Cc2ccc(/C=C/C(=O)NO)cc2)S(=O)(=O)c2cc(F)c(F)c(F)c2F)cc1` [Compound I-69], the IC50 amounted to 1600 nM in the data set on MV-4-11 (Homo sapiens, MV4-11, Table 5) and 1800 nM in the data set on MOLM-13 (Table 5).
`O=C(NO)c1ccc(CN(C2CC2)S(=O)(=O)c2c(F)cc(F)c(Cl)c2F)cc1` [Compound I-42, 4-((3-chloro-N-cyclopropyl-2,4,6-trifluorophenylsulfonamido)methyl)-N-hydroxybenzamide]: in the data set on MV-4-11 (Homo sapiens, MV4-11, Table 4), the IC50 is 741 nM.
In the case of `O=C(NO)c1ccc(CN(Cc2ccc(C(F)(F)F)cc2)S(=O)(=O)c2c(F)c(F)c(F)c(F)c2F)cc1` [Compound I-10, N-hydroxy-4-((2,3,4,5,6-pentafluoro-N-(4-(trifluoromethyl)benzyl)phenylsulfonamido)methyl)benzamide], in the data set on MOLM-13 (Table 4), the IC50 was 9100 nM.
For `Cc1ccc(CN(Cc2ccc(CC(=O)NO)cc2)S(=O)(=O)c2cc(F)c(F)c(F)c2F)cc1F` [Compound I-73], the IC50 in the data set with MV-4-11 (Homo sapiens, MV4-11, Table 5) stood at 1090 nM.
For the compound `O=C(CCCCCCC(=O)Nc1ccccc1)NO` [Vorinostat], in data set [1], the half-life stood at 1.98 h, the “Remaining Percentage (%) 0 min” value is 100%, the “Remaining Percentage (%) 15 min” value was 98.6% and the “Remaining Percentage (%) 30 min” value came to 89.0%. For the same compound, in data set [1], the “Remaining Percentage (%) 45 min” value was determined as 74.9%, the “Remaining Percentage (%) 60 min” value came out at 68.4% and the “Remaining Percentage (%) 120 min” value is 52.1%.
As for `O=C(NO)c1ccc(CN(Cc2ccc(F)cc2)S(=O)(=O)c2c(F)c(F)c(F)c(F)c2F)cc1` [Compound I-9, N-hydroxy-4-((2,3,4,5,6-pentafluoro-N-(4-fluorobenzyl)phenylsulfonamido)methyl)benzamide], the IC50 in the data set on MOLM-13 (Table 4) turned out to be 5200 nM.

Source of the values: patent US20220169598A1, “HALOGENATED PHENYLSULFONAMIDE HYDROXAMIC ACID COMPOUNDS, COMPOSITIONS AND USES THEREOF AS SELECTIVE HDAC6 INHIBITORS” (2681603 ONTARIO INC., priority 2019, published 2022).
